The source of these data is patent US20100144733A1, “Compounds, compositions and methods comprising heteroaromatic derivatives” (Institute for OneWorld Health, priority 2008, published 2010).

One test concerns the target T1, CFTR (Homo sapiens, UniProt P13569).
T1 construct: endogenous in cells; host or cells: T84 human colonic cells (ECACC)
The experiment in a line: T84 assay (FLIPR membrane potential dye, forskolin/IBMX-stimulated CFTR channel activity). The class given is cell-based. Conditions: imidazole and triazole-containing compounds (Tables 13, 14, 14′), read-out: IC50 (μM) (T84 assay). The method, boiled down: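 Fluorescence from a membrane potential dye in T84 monolayers (HBSS with 10 mM Hepes) is followed each second for 150 s. Cells are exposed to test compound during the 45 min dye loading, then challenged with forskolin (10 μM) and IBMX (100 μM) to open CFTR. Inhibitors suppress the depolarization-driven fluorescence increase.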

In a further test the target is T2, CHO-CFTR cell line (Homo sapiens, UniProt P13569).
T2 construct: expressed in transfected cells; host or cells: CHO (CHO-CFTR cell line)
T2 sequence (P13569 whole entry): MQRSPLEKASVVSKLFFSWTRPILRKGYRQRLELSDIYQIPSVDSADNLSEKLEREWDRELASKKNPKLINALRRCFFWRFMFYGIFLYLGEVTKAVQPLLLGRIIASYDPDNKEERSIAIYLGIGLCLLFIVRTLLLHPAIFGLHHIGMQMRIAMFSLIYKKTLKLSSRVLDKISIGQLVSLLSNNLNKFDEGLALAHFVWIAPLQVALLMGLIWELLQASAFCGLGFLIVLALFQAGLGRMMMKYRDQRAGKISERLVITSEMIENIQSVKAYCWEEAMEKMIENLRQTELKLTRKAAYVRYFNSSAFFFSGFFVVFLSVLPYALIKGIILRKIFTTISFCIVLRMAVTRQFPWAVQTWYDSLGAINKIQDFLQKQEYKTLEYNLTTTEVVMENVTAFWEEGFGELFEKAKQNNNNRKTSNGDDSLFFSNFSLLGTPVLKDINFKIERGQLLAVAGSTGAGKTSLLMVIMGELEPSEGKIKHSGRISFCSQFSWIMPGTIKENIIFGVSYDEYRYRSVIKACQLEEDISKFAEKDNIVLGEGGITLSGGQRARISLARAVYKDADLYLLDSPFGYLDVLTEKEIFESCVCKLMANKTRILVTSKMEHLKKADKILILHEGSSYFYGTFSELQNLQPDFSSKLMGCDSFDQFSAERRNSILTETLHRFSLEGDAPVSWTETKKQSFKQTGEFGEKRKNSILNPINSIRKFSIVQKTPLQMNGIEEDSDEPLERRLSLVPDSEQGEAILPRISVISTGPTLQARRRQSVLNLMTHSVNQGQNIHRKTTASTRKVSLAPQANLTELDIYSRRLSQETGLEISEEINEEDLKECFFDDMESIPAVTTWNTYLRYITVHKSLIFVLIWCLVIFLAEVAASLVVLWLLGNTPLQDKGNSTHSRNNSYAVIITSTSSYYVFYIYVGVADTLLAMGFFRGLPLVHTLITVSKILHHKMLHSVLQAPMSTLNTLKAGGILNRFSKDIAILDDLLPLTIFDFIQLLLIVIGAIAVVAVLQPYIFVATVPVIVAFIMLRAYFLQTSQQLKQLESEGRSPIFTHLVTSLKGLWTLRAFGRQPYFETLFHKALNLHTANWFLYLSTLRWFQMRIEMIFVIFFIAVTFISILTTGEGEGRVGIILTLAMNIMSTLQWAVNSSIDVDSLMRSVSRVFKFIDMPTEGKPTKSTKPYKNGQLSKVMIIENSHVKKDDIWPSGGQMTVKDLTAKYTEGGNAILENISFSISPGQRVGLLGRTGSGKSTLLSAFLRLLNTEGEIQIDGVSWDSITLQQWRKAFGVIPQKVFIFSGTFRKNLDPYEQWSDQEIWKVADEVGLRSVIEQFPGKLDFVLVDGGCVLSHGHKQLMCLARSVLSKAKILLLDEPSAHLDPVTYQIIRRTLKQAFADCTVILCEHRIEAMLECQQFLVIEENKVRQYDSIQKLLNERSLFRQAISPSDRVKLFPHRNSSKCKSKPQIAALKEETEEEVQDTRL
Nature of the test: CHO-CFTR assay (FLIPR assay, same conditions as the T84 assay). The class given is cell-based. To be noted: imidazole and triazole-containing compounds.

Structures are written as SMILES.

T1 sequence (P13569 whole entry): as above

A word on the IC50: it is the concentration that inhibits the measured activity by half. For `O=C(c1ncn(-c2cc(Cl)c(O)c(Cl)c2)n1)N(Cc1cccnc1)Cc1cccc(OC(F)(F)F)c1` [110i, 1-(3,5-dichloro-4-hydroxyphenyl)-N-(pyridin-3-ylmethyl)-N-(3-(trifluoromethoxy)benzyl)-1H-1,2,4-triazole-3-carboxamide], the IC50 on CFTR was found to be 4.48 µM; against CHO-CFTR cell line it was 7.8 µM.

Consider `Oc1c(Cl)cc(-n2cnc(C(O)(Cc3ccc(F)cc3)Cc3ccc(F)cc3)n2)cc1Cl` [56i, 4-(3-(1,3-bis(4-fluorophenyl)-2-hydroxypropan-2-yl)-1H-1,2,4-triazol-1-yl)-2,6-dichlorophenol], for which the IC50 came to 20.4 µM on CFTR and 25.5 µM against CHO-CFTR cell line.

On to `O=C(NCc1cc(Cl)cc(Cl)c1)c1ncn(-c2cc(Cl)c(O)c(Cl)c2)n1` [36i, 1-(3,5-dichloro-4-hydroxyphenyl)-N-(3,5-dichlorobenzyl)-1H-1,2,4-triazole-3-carboxamide], for which the figures for the half-maximal inhibitory concentration (IC50) on CFTR and on CHO-CFTR cell line were 3.7 µM and 13.7 µM, respectively.

`Oc1c(Cl)cc(-n2cnc(C(O)(c3ccc(F)c(F)c3)c3ccc(F)c(F)c3)n2)cc1Cl` [55i, 4-(3-(bis(3,4-difluorophenyl)(hydroxy)methyl)-1H-1,2,4-triazol-1-yl)-2,6-dichlorophenol]: the IC50 at CFTR is 17.2 µM; at CHO-CFTR cell line, 6.94 µM.

Take `CN(Cc1ccc(C(C)(C)C)cc1)C(=O)c1ncn(-c2cc(Cl)c(O)c(Cl)c2)n1` [1i, N-(4-tert-butylbenzyl)-1-(3,5-dichloro-4-hydroxyphenyl)-N-methyl-1H-1,2,4-triazole-3-carboxamide]: the IC50 on CFTR was 4.26 µM; on CHO-CFTR cell line, 5.38 µM.

Regarding `Oc1c(Cl)cc(-n2cnc(C(O)(c3cc(F)cc(F)c3)c3cc(F)cc(F)c3)n2)cc1Cl` [52i, 4-(3-(Bis(3,5-difluorophenyl)(hydroxy)methyl)-1H-1,2,4-triazol-1-yl)-2,6-dichlorophenol], the IC50 at CFTR stood at 13.6 µM; at CHO-CFTR cell line, 7.8 µM.

For `CCN(Cc1cccc(OC(F)(F)F)c1)C(=O)c1ncn(-c2cc(Cl)c(O)c(Cl)c2)n1` [89i, 1-(3,5-dichloro-4-hydroxyphenyl)-N-ethyl-N-(3-(trifluoromethoxy)benzyl)-1H-1,2,4-triazole-3-carboxamide], the IC50 at CFTR stood at 3.34 µM; against CHO-CFTR cell line it was 24.6 µM.

With `CC(C)N(Cc1ccc(C(C)(C)C)cc1)C(=O)c1ncn(-c2cc(Cl)c(O)c(Cl)c2)n1` [97i], the IC50 came out at 1.23 µM on CFTR and 35.5 µM at CHO-CFTR cell line.

On to `Oc1c(Cl)cc(-n2cnc(C(O)(Cc3ccccc3F)Cc3ccccc3F)n2)cc1Cl` [59i, 4-(3-(1,3-bis(2-fluorophenyl)-2-hydroxypropan-2-yl)-1H-1,2,4-triazol-1-yl)-2,6-dichlorophenol], for which the results for the IC50 at CFTR and against CHO-CFTR cell line were 21.1 µM and 5.45 µM, respectively.

As for `CC(C)c1ccc(CN(Cc2cccnc2)C(=O)c2ncn(-c3cc(Cl)c(O)c(Cl)c3)n2)cc1` [92i, 1-(3,5-dichloro-4-hydroxyphenyl)-N-(4-isopropylbenzyl)-N-(pyridin-3-ylmethyl)-1H-1,2,4-triazole-3-carboxamide], the IC50 on CFTR came out at 1.47 µM; at CHO-CFTR cell line, 8.57 µM.

With `O=C(NC(c1ccccc1)c1ccc(Cl)cc1)c1ncn(-c2cc(Cl)c(O)c(Cl)c2)n1` (stereo not drawn) [33i, N-((4-chlorophenyl)(phenyl)methyl)-1-(3,5-dichloro-4-hydroxyphenyl)-1H-1,2,4-triazole-3-carboxamide], the IC50 at CFTR turned out to be 3.66 µM; against CHO-CFTR cell line, 4.8 µM.

On to `CON(Cc1ccc(C(C)(C)C)cc1)C(=O)c1ncn(-c2cc(Cl)c(O)c(Cl)c2)n1` [127i, N-(4-tert-butylbenzyl)-1-(3,5-dichloro-4-hydroxyphenyl)-N-methoxy-1H-1,2,4-triazole-3-carboxamide], for which the half-inhibitory concentration (IC50) at CFTR worked out at 1.49 µM; against CHO-CFTR cell line, 32.9 µM.

For `CC(C)(C)c1ccc(CN(Cc2cccnc2)C(=O)c2ncn(-c3cc(Cl)c(O)c(Cl)c3)n2)cc1` [93i, N-(4-tert-butylbenzyl)-1-(3,5-dichloro-4-hydroxyphenyl)-N-(pyridin-3-ylmethyl)-1H-1,2,4-triazole-3-carboxamide], the IC50 at CFTR is 1.19 µM; against CHO-CFTR cell line, 4.67 µM.

For `CC(C)(C)C(=O)CN(Cc1ccc(C(C)(C)C)cc1)C(=O)c1ncn(-c2cc(Cl)c(O)c(Cl)c2)n1` [50i, N-(4-tert-butylbenzyl)-1-(3,5-dichloro-4-hydroxyphenyl)-N-(3,3-dimethyl-2-oxobutyl)-1H-1,2,4-triazole-3-carboxamide], the values for the IC50 on CFTR and against CHO-CFTR cell line were 1.16 µM and 18.5 µM, respectively.

For `O=C(c1ncn(-c2cc(Cl)c(O)c(Cl)c2)n1)N(Cc1cccnc1)Cc1cccc(C(F)(F)F)c1` [94i, 1-(3,5-dichloro-4-hydroxyphenyl)-N-(pyridin-3-ylmethyl)-N-(3-(trifluoromethyl)benzyl)-1H-1,2,4-triazole-3-carboxamide], the IC50 at CFTR amounted to 6.95 µM; against CHO-CFTR cell line it was 21.1 µM.

For `O=C(NCc1ccc(F)c(Cl)c1)c1ncn(-c2cc(Cl)c(O)c(Cl)c2)n1` [23i, N-(3-chloro-4-fluorobenzyl)-1-(3,5-dichloro-4-hydroxyphenyl)-1H-1,2,4-triazole-3-carboxamide], the IC50 stood at 7.39 µM at CFTR and 12.5 µM on CHO-CFTR cell line.

For `CC(C)(C)CCN(Cc1ccccc1)C(=O)c1ncn(-c2cc(Cl)c(O)c(Cl)c2)n1` [60i, N-Benzyl-1-(3,5-dichloro-4-hydroxyphenyl)-N-(3,3-dimethylbutyl)-1H-1,2,4-triazole-3-carboxamide], the IC50 stood at 16.2 µM at CFTR and 5.45 µM on CHO-CFTR cell line.

`CC(C)(C)C(=O)C(Cc1cccc(OC(F)(F)F)c1)NC(=O)c1ncn(-c2cc(Cl)c(O)c(Cl)c2)n1` (stereo not drawn) [133i, 1-(3,5-dichloro-4-hydroxyphenyl)-N-(4,4-dimethyl-3-oxo-1-(3-(trifluoromethoxy)phenyl)pentan-2-yl)-1H-1,2,4-triazole-3-carboxamide]: the half-inhibitory concentration (IC50) on CFTR amounted to 1.23 µM; against CHO-CFTR cell line, 21 µM.

`CCN(Cc1cccc(C(F)(F)F)c1)C(=O)c1ncn(-c2cc(Cl)c(O)c(Cl)c2)n1` [90i, 1-(3,5-dichloro-4-hydroxyphenyl)-N-ethyl-N-(3-(trifluoromethyl)benzyl)-1H-1,2,4-triazole-3-carboxamide]: the values for the IC50 at CFTR and on CHO-CFTR cell line were 5.98 µM and 15.9 µM, respectively.

With `CON(Cc1ccc(Cl)c(Cl)c1)C(=O)c1ncn(-c2cc(Cl)c(O)c(Cl)c2)n1` [126i, 1-(3,5-dichloro-4-hydroxyphenyl)-N-(3,4-dichlorobenzyl)-N-methoxy-1H-1,2,4-triazole-3-carboxamide], the IC50 was found to be 2.43 µM at CFTR and 2.46 µM against CHO-CFTR cell line.

Regarding `O=C(NCC(c1ccccc1)c1ccccc1)c1ncn(-c2cc(Cl)c(O)c(Cl)c2)n1` [44i, 1-(3,5-dichloro-4-hydroxyphenyl)-N-(2,2-diphenylethyl)-1H-1,2,4-triazole-3-carboxamide], the figures for the IC50 at CFTR and against CHO-CFTR cell line were 2.8 µM and 23.2 µM, respectively.

Turning to `CC(C)N(Cc1cccc(OC(F)(F)F)c1)C(=O)c1ncn(-c2cc(Cl)c(O)c(Cl)c2)n1` [99i, 1-(3,5-dichloro-4-hydroxyphenyl)-N-isopropyl-N-(3-(trifluoromethoxy)benzyl)-1H-1,2,4-triazole-3-carboxamide], the IC50 at CFTR was 7.93 µM; against CHO-CFTR cell line, 12 µM.

For `CCN(Cc1ccc(C(C)(C)C)cc1)C(=O)c1ncn(-c2cc(Cl)c(O)c(Cl)c2)n1` [88i, N-(4-tert-butylbenzyl)-1-(3,5-dichloro-4-hydroxyphenyl)-N-ethyl-1H-1,2,4-triazole-3-carboxamide], the IC50 at CFTR is 0.75 µM; at CHO-CFTR cell line it was 6.58 µM.

With `O=C(NCCC(c1ccccc1)c1ccccc1)c1ncn(-c2cc(Cl)c(O)c(Cl)c2)n1` [31i, 1-(3,5-dichloro-4-hydroxyphenyl)-N-(3,3-diphenylpropyl)-1H-1,2,4-triazole-3-carboxamide], the half-maximal inhibitory concentration (IC50) at CFTR amounted to 1.67 µM; at CHO-CFTR cell line, 12.9 µM.

Take `O=C(c1ncn(-c2cc(Cl)c(O)c(Cl)c2)n1)N(Cc1ccc(Oc2ccccc2)cc1)Cc1cccnc1` [91i, 1-(3,5-dichloro-4-hydroxyphenyl)-N-(4-phenoxybenzyl)-N-(pyridin-3-ylmethyl)-1H-1,2,4-triazole-3-carboxamide]: the IC50 at CFTR is 2.89 µM; against CHO-CFTR cell line, 20.6 µM.

As for `O=C(NCc1ccc(Oc2cc(F)c(F)c(F)c2)cc1)c1ncn(-c2cc(Cl)c(O)c(Cl)c2)n1` [65i, 1-(3,5-dichloro-4-hydroxyphenyl)-N-(4-(3,4,5-trifluorophenoxy)benzyl)-1H-1,2,4-triazole-3-carboxamide], the values for the IC50 on CFTR and at CHO-CFTR cell line were 5.83 µM and 0.86 µM, respectively.

Turning to `CCON(Cc1ccc(Oc2ccccc2)cc1)C(=O)c1ncn(-c2cc(Cl)c(O)c(Cl)c2)n1` [130i, 1-(3,5-dichloro-4-hydroxyphenyl)-N-ethoxy-N-(4-phenoxybenzyl)-1H-1,2,4-triazole-3-carboxamide], the half-inhibitory concentration (IC50) at CFTR was 2.84 µM; on CHO-CFTR cell line, 4.09 µM.

For the compound `C=CCN(Cc1ccc(C(C)(C)C)cc1)C(=O)c1ncn(-c2cc(Cl)c(O)c(Cl)c2)n1` [51i, N-allyl-N-(4-tert-butylbenzyl)-1-(3,5-dichloro-4-hydroxyphenyl)-1H-1,2,4-triazole-3-carboxamide], the IC50 at CFTR came to 0.63 µM; against CHO-CFTR cell line, 5.13 µM.

For the compound `CC(C)(C)CCN(Cc1cccnc1)C(=O)c1ncn(-c2cc(Cl)c(O)c(Cl)c2)n1` [78i, 1-(3,5-dichloro-4-hydroxyphenyl)-N-(3,3-dimethylbutyl)-N-(pyridin-3-ylmethyl)-1H-1,2,4-triazole-3-carboxamide], the IC50 on CFTR came out at 11.4 µM; against CHO-CFTR cell line it was 13.7 µM.

Take `CC(C)(C)c1ccc(CN(Cc2ccccc2)C(=O)c2ncn(-c3cc(Cl)c(O)c(Cl)c3)n2)cc1` [82i, N-benzyl-N-(4-tert-butylbenzyl)-1-(3,5-dichloro-4-hydroxyphenyl)-1H-1,2,4-triazole-3-carboxamide]: the results for the IC50 at CFTR and at CHO-CFTR cell line were 1.6 µM and 19.7 µM, respectively.
